Laboratory results taken from patent US12018021B2 (UCB Biopharma SRL, priority 2018, dated 2024).
pIC50: −log10 of the molar value.

Target: IgE-Tb / sFcεRIα-Y131A-AF488 (Homo sapiens, UniProt P01854, N146Q/N252Q)
Experiment: IgE-Tb / sFcεRIα-Y131A-AF488 FRET assay (protocol for examples 234 to 501)
Type: binding
Details: examples 234 to 501: compound with IgE-Tb 30 minutes before sFcεRIα-Y131A-AF488, incubated 18 hours at room temperature; read-out: Y131A FRET IC50 range
Procedure, shortened: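 Read-out is the 520/490 nm emission ratio (337 nm excitation) after 18 h at room temperature, background subtracted, fitted four-parameter for IC50. Final reagents: 5 nM IgE-Tb, preincubated 30 min with compound (top typically 10 μM, 2% DMSO, 3-fold 10-point), plus 25 nM sFcεRIα-Y131A-AF488.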

IgE-Tb / sFcεRIα-Y131A-AF488, sequence (P01854 whole entry N146Q/N252Q): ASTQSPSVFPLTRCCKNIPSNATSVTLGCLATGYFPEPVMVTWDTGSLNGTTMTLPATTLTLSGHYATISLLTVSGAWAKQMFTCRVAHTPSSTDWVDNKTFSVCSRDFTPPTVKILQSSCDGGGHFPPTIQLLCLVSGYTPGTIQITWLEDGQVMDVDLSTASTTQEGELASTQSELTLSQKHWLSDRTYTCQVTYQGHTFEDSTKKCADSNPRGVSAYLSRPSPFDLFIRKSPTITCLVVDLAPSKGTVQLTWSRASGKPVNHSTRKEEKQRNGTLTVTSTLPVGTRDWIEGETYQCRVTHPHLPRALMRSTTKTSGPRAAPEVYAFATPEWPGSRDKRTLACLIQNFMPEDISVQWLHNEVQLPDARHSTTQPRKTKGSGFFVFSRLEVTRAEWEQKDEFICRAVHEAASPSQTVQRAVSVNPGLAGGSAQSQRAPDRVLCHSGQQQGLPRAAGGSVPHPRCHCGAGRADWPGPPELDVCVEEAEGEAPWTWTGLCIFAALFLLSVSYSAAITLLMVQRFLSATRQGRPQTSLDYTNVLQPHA

O=C(NCC1CC1)c1c(NC(=O)C2CC2)sc2c1C[C@@H](n1cnnc1Nc1ccc3c(c1)OC(F)(F)O3)CC2 [Example 419, (5S)-2-(Cyclopropanecarbonylamino)-N-(cyclopropylmethyl)-5-[3-[(2,2-difluoro-1,3-benzodioxol-5-yl)amino]-1,2,4-triazol-4-yl]-4,5,6,7-tetrahydrobenzothiophene-3-carboxamide]
pIC50: > 6.00

Cn1nc(C(F)F)cc1Nc1nncn1[C@H]1CCc2sc(NC(=O)[C@H]3CC34CC4)c(C(=O)NCC3CC(F)(F)C3)c2C1 [Example 407, (5S)—N-[(3,3-Difluorocyclobutyl)methyl]-5-[3-[[5-(difluoromethyl)-2-methylpyrazol-3-yl]amino]-1,2,4-triazol-4-yl]-2-[[(2S)-spiro[2,2]pentane-2-carbonyl]amino]-4,5,6,7-tetrahydro-1-benzothiophene-3-carboxamide]
pIC50: > 6.00

Cn1nc(OC(F)F)cc1Nc1nncn1[C@H]1CCc2sc(NC(=O)[C@H]3C[C@H](F)C3)c(C(=O)NC[C@H]3C[C@H](F)C3)c2C1 [Example 486, (5S)-5-[3-[[5-(difluoromethoxy)-2-methylpyrazol-3-yl]amino]-1,2,4-triazol-4-yl]-2-[trans-(3-fluorocyclobutanecarbonyl)amino]-N-[trans-(3-fluorocyclobutyl)methyl]-4,5,6,7-tetrahydro-1-benzothiophene-3-carboxamide]
pIC50: > 6.00

Cc1c(Nc2nncn2[C@H]2CCc3sc(NC(=O)C4CC4)c(C(=O)NCC4CC4)c3C2)cccc1[S@@](C)(=N)=O (single isomer, unassigned) [Example 236]
pIC50: > 6.00

Cc1c(Nc2nncn2[C@H]2CCc3sc(NC(=O)C4CC4)c(C(=O)NCC4CC4)c3C2)cccc1S(C)(=N)=O (mixture of isomers) [Example 235, (5S)-2-cyclopropaneamido-N-(cyclopropylmethyl)-5-[3-({3-[imino(methyl)oxo-lambda6-sulfanyl]-2-methylphenyl}amino)-4H-1,2,4-triazol-4-yl]-4,5,6,7-tetrahydro-1-benzothiophene-3-carboxamide]
pIC50: > 6.00

CC1CCCCC1Nc1nncn1[C@H]1CCc2sc(NC(=O)C3CC3)c(C(=O)NCC3CC3)c2C1 (single isomer, unassigned) [Example 269]
pIC50: > 6.00

O=C1CC(Nc2nncn2[C@H]2CCc3sc(NC(=O)C4CC4)c(C(=O)NCC4CC4)c3C2)CCN1 (stereo partly drawn) [Example 272, (5S)-2-(cyclopropanecarbonylamino)-N-(cyclopropylmethyl)-5-[3-[(2-oxo-4-piperidyl)amino]-1,2,4-triazol-4-yl]-4,5,6,7-tetrahydrobenzothiophene-3-carboxamide]
pIC50: > 6.00

Cn1nc(OC(F)F)cc1Nc1nncn1[C@H]1CCc2sc(NC(=O)[C@H]3C[C@@H]3F)c(C(=O)NC[C@H]3C[C@H](F)C3)c2C1 (single isomer, unassigned) [Example 378]
pIC50: > 6.00

CC1CC1C(=O)Nc1sc2c(c1C(=O)NCC1CC1)C[C@@H](n1cnnc1Nc1cc(C(F)F)nn1C)CC2 (mixture of isomers) [Example 369, (5S)—N-(cyclopropylmethyl)-5-[3-[[5-(difluoromethyl)-2-methylpyrazol-3-yl]amino]-1,2,4-triazol-4-yl]-2-[(2-methylcyclopropanecarbonyl)amino]-4,5,6,7-tetrahydro-1-benzothiophene-3-carboxamide]
pIC50: > 6.00

Cn1nc(C(F)F)cc1Nc1nncn1[C@H]1CCc2sc(NC(=O)C3CC(F)(F)C3)c(C(=O)NCC3CC3)c2C1 [Example 357, (5S)—N-(cyclopropylmethyl)-2-[(3,3-difluorocyclobutanecarbonyl)amino]-5-[3-[[5-(difluoromethyl)-2-methylpyrazol-3-yl]amino]-1,2,4-triazol-4-yl]-4,5,6,7-tetrahydro-1-benzothiophene-3-carboxamide]
pIC50: > 6.00

Cn1nc(C(F)F)cc1Nc1nncn1[C@H]1CCc2sc(NC(=O)C3CC3(F)F)c(C(=O)NCC3CC3(F)F)c2C1 (single isomer, unassigned) [Example 282]
pIC50: > 6.00

Cn1nc(OC(F)F)cc1Nc1nncn1[C@H]1CCc2sc(NC(=O)[C@H]3C[C@@H]3F)c(C(=O)N[C@H]3C[C@H](F)C3)c2C1 (single isomer, unassigned) [Example 379]
pIC50: > 6.00

COc1cnc(Nc2nncn2[C@H]2CCc3sc(NC(=O)C4CC4)c(C(=O)NCC4CC4)c3C2)c(C)n1 [Example 297, (5S)-2-(cyclopropanecarbonylamino)-N-(cyclopropylmethyl)-5-[3-[(5-methoxy-3-methyl-pyrazin-2-yl)amino]-1,2,4-triazol-4-yl]-4,5,6,7-tetrahydrobenzothiophene-3-carboxamide]
pIC50: > 6.00

O=C(NCC1CC1)c1c(NC(=O)C2CC2)sc2c1C[C@@H](n1cnnc1Nc1ccc(Cl)nc1)CC2 [Example 430, (5S)-5-[3-[(6-chloro-3-pyridyl)amino]-1,2,4-triazol-4-yl]-2-(cyclopropanecarbonylamino)-N-(cyclopropylmethyl)-4,5,6,7-tetrahydrobenzothiophene-3-carboxamide]
pIC50: > 6.00

O=C(NCC1CC1)c1c(NC(=O)C2CC2)sc2c1C[C@@H](n1cnnc1NC1CCS(=O)(=O)C1)CC2 (single isomer, unassigned) [Example 234, (5S)-2-(cyclopropanecarbonylamino)-N-(cyclopropylmethyl)-5-[3-[[(3S*)-1,1-dioxothiolan-3-yl]amino]-1,2,4-triazol-4-yl]-4,5,6,7-tetrahydrobenzothiophene-3-carboxamide]
pIC50: > 6.00

Cn1nc(C(F)(F)F)cc1Nc1nncn1[C@H]1CCc2sc(NC(=O)[C@H]3C[C@H]3F)c(C(=O)N[C@H]3C[C@H](F)C3)c2C1 [Example 402, (5S)—N-(trans-3-fluorocyclobutyl)-2-[[(1R,2R)-2-fluorocyclopropanecarbonyl]amino]-5-[3-[[2-methyl-5-(trifluoromethyl)pyrazol-3-yl]amino]-1,2,4-triazol-4-yl]-4,5,6,7-tetrahydro-1-benzothiophene-3-carboxamide]
pIC50: > 6.00

CCOC(=O)c1ncn([C@H]2CCc3sc(NC(=O)C4CC4)c(C(=O)NCC4CC4)c3C2)c1Nc1c([N+](=O)[O-])c(C)nn1C [Example 262, Ethyl 1-[(5S)-2-(cyclopropanecarbonylamino)-3-(cyclopropylmethylcarbamoyl)-4,5,6,7-tetrahydrobenzothiophen-5-yl]-5-[(2,5-dimethyl-4-nitro-pyrazol-3-yl)amino]imidazole-4-carboxylate]
pIC50: > 6.00

C[C@H]1c2c(sc(NC(=O)C3CC3)c2C(=O)NCC2CC2)CC[C@@H]1n1cnnc1Nc1cc(C(F)(F)F)nn1C (racemic) [Example 421, (4RS,5RS)-2-(cyclopropanecarbonylamino)-N-(cyclopropylmethyl)-4-methyl-5-[3-[[2-methyl-5-(trifluoromethyl)pyrazol-3-yl]amino]-1,2,4-triazol-4-yl]-4,5,6,7-tetrahydrobenzothiophene-3-carboxamide]
pIC50: > 6.00

Cn1nc(C(F)F)cc1Nc1nncn1[C@H]1CCc2sc(NC(=O)[C@H]3CC34CC4)c(C(=O)NC[C@@H]3C[C@@H]3F)c2C1 [Example 420, (5S)-5-[3-[[5-(Difluoromethyl)-2-methyl-pyrazol-3-yl]amino]-1,2,4-triazol-4-yl]-N-[[(1S,2S)-2-fluorocyclopropyl]methyl]-2-[[(2S)-spiro[2.2]pentane-2-carbonyl]amino]-4,5,6,7-tetrahydrobenzothiophene-3-carboxamide]
pIC50: > 6.00
